Measurements published in patent publication US20030180304A1, “Secretory tyrosine phosphatases from mycobacteria” (priority 2000, published 2003).
“Also recorded” adds a separate entry of the source.

Assays:
MptpA = target: T1, MptpA (Mycobacterium tuberculosis, UniProt P9WIA1); assay type: biochemical, M. tuberculosis; details: pH 7
T1 construct: made in house; host or cells: E. coli BL21 (pGEX-5X-3)

MptpB = target: T2, MptpB (Mycobacterium tuberculosis, UniProt I6WXK4); assay type: biochemical, M. tuberculosis; details: pH 5.6
T2 construct: made in house; host or cells: E. coli BL21 (pGEX-5X-3)
T2 sequence (I6WXK4 whole entry, looked up): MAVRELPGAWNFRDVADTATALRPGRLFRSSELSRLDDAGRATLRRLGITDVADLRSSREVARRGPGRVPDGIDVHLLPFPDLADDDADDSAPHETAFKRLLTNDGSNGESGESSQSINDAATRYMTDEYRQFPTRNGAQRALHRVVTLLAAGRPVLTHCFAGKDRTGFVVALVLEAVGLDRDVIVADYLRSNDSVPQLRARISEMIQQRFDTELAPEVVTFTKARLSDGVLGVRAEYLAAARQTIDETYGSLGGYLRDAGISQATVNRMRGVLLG

T1 sequence (P9WIA1 whole entry): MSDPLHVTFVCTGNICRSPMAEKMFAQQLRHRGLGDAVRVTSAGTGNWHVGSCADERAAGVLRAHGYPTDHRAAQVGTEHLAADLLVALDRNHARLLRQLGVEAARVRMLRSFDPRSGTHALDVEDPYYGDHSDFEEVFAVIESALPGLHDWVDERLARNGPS

Structure (SMILES) | Effect of inhibitor on the activity of MptpA towards tyrosine phosphorylated MBP (MptpA) | Effect of inhibitor on the activity of MptpB towards tyrosine phosphorylated MBP (MptpB)
C=C1[C@@H](O)[C@@H]2O[C@]3(CC[C@H](/C=C/[C@@H](C)[C@@H]4CC(C)=C[C@@]5(O[C@H](C[C@@](C)(O)C(=O)O)CC[C@H]5O)O4)O3)CC[C@H]2O[C@@H]1[C@@H](O)C[C@H](C)[C@H]1O[C@@]2(CCCCO2)CC[C@H]1C [okadaic acid] | had no effect; also recorded: did not inhibit | had no effect; also recorded: did not inhibit
[F-].[Na+] [sodium fluoride] | had no effect | had no effect
[Na+].[Na+].[Na+].[O]=[V]([O-])([O-])[O-] [sodium orthovanadate] | inhibited | inhibited
O=C(O)C(O)C(O)C(=O)O (stereo not shown) [tartrate] | had no effect; also recorded: insensitive | had no effect; also recorded: insensitive
c1ccc(C2CN3CCSC3=N2)cc1 (stereo not shown) [tetramisole] | had no effect; also recorded: insensitive | had no effect; also recorded: insensitive
